Source: patent US6476019B1, “Spirocyclic ligands for sigma receptors, and libraries and methods of use thereof” (Sepracor Inc., priority 1999, dated 2002)
In brackets after ≈: the same amount, converted by molar mass. Like-named read-outs stand apart in the source and are kept apart here.

How the values were obtained:
sigma-2 = sigma-2 (Rattus norvegicus, UniProt Q5U3Y7); experiment: Behavioral receptor assays: sigma-2; format: binding; details: read-out: Receptors (IC50) sigma-2
Experimental: (§1) Various compounds of the present invention (19, 31, and 32) were evaluated in a group of assays based on mammalian cellular receptors associated with behavior. The group consisted of assays base on human dopamine D1, D2L, D3, D4.2, D4.4, D4.7, and D5 receptors, and the transporter; human serotonin 5-HT1A, 5-HT1B, 5-HT1D, 5-HT2A, 5-HT2B, 5-HT2C, 5-HT3, 5-HT5A, 5-HT6, and 5-HT7 receptors, and the human serotonin transporter; guinea pig 5-HT4 and sigma-1 receptors; rat sigma-2 and muscarinic receptors; and human NK1-3 receptors. The following table presents a subset of the results of these assays.

GSH Level = experiment: Safety Assessment: GSH Level
Caspase-3 = experiment: Safety Assessment: Caspase-3 Induction
CYP2D6 = CYP2D6 (Homo sapiens, UniProt P10635); experiment: In Vitro Metabolism (isozymes of P450) CYP2D6
[1] = Pharmacokinetics in a single rat; format: in vivo; details: for concentration at 4 h: brain, 4 h post dose, read-out: Brain Tissue Distribution (4 h post dose, ng/g tissue); for concentration at 4 h / clearance / AUC(0-t): iv; for concentration at 4 h / AUC(0-t) / T1/2α / T1/2β: rat; for clearance / AUC(0-t): plasma; for clearance / Vb / Vc: rat (270 g); for AUC(0-t): read-out: AUC0-4h
Experimental: Pharmacokinetic properties of the compounds were evaluated in a single rat after dosing 4 and 5 mg/kg, respectively. The dose was well tolerated by the animal. The data below is based on a 270 g rat. Numerous time points were taken during a 4 hour period where a 0.1 mL volume of plasma was transferred to a 1.4 mL polypropylene vial and 0.4 mL of chilled methanol (0° C.) was added. The resulting percipitate was centrifuged at 7000 rpm at 4° C. for 5 min. The resulting supernatant was analysed by HPLC using a sample volume of 0.05 mL alongside standard solutions prepared by “spiking” known amounts of the compounds into the control plasma. Standard solution of the compounds were prepared in methanol.

CYP2C19 = CYP2C19 (Homo sapiens, UniProt P33261); experiment: In Vitro Metabolism (isozymes of P450) CYP2C19
[2] = molecular target: T1, sigma-1 receptor (guinea pig brain) (Cavia porcellus, UniProt Q60492); experiment: Antagonism of haloperidol binding to guinea pig sigma-1 receptors; details: sigma-1, guinea pig brain; for % Inhibition: test concentration not given
T1 construct: from tissue; host or cells: guinea pig brain

sigma-1 receptors = sigma-1 receptors (Cavia porcellus, UniProt Q60492); experiment: Behavioral receptor assays: sigma-1; format: binding; details: guinea pig
Experimental: as §1

CYP1A2 = molecular target: T2, CYP1A2 (Homo sapiens, UniProt P05177); experiment: In Vitro Metabolism (isozymes of P450) CYP1A2
T2 sequence (P05177 1-516): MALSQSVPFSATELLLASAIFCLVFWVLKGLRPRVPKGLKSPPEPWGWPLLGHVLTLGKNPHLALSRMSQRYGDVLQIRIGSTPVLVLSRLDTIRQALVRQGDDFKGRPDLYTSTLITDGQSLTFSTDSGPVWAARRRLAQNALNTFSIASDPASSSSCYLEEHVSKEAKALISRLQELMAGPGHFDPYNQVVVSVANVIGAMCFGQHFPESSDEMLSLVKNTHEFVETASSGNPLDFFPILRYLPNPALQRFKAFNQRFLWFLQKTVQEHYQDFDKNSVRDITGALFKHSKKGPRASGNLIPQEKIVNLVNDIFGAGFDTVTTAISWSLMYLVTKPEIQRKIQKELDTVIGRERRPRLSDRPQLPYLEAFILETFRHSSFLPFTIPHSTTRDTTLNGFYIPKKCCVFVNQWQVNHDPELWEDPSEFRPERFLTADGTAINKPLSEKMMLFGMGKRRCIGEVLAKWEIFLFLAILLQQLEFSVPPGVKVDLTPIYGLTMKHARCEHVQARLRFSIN

DNA Synthesis = experiment: Safety Assessment: DNA Synthesis
Permeability = format: in vitro ADME; details: not told; read-out: Permeability PupperX10^6 cm/s
Cell Viability = experiment: Safety Assessment: Cell Viability
Protein Synthesis = experiment: Safety Assessment: Protein Synthesis
human sigma receptor = human sigma receptor (Homo sapiens, UniProt Q99720); experiment: Human sigma receptor assay; format: binding; details: read-out: IC50 Against Human Sigma Receptor
Experimental: (§2) The ability of test compounds to displace sigma ligands in vitro was determined by the methods of de Costa et al. (FEBS Lett. 251:53 (1989)) and De Haven-Hudkine et al. (Eur. J. Pharmacol. 227:372 (1992)) having guinea pig as a receptor source. Whereas, the methods of Gamapatju et al. (J. Pharm.&Exp. 289:251 (1999)) were utilized for human sigma receptors.

CYP3A4 = CYP3A4 (Homo sapiens, UniProt P08684); experiment: In Vitro Metabolism (isozymes of P450) CYP3A4
[3] = molecular target: T3, guinea pig sigma receptor (Cavia porcellus, UniProt Q60492); experiment: Guinea pig sigma receptor assay; format: binding; details: read-out: IC50 Against Guinea Pig Sigma Receptor
T3 construct: having guinea pig as a receptor source; from tissue; host or cells: guinea pig
Experimental: as §2

CYP2C9 = CYP2C9 (Homo sapiens, UniProt P11712); experiment: In Vitro Metabolism (isozymes of P450) CYP2C9
Membrane Integrity = experiment: Safety Assessment: Membrane Integrity
RedOx State = experiment: Safety Assessment: RedOx State

T1 sequence (Q60492 whole entry): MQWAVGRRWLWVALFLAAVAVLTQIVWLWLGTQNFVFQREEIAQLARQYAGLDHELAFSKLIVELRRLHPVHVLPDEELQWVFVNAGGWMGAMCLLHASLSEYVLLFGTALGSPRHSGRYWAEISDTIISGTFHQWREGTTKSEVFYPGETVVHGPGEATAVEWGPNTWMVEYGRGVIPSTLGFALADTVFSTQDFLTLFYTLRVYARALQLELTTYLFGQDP
Chain of CYP2C9 (P11712 whole entry): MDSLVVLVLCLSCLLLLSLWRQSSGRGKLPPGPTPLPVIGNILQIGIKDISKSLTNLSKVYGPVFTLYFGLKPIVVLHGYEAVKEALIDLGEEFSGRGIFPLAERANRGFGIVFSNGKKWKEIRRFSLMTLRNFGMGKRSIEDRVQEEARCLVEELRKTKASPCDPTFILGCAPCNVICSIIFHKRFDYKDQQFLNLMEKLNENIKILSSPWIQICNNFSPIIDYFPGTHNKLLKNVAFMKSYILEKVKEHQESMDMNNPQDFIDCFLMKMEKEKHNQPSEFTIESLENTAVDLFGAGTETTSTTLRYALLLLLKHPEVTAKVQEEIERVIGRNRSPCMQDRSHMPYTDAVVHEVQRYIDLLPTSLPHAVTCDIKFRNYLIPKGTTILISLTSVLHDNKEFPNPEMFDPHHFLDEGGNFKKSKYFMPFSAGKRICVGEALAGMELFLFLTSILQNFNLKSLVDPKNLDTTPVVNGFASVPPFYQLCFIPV
Chain of human sigma receptor (Q99720 whole entry): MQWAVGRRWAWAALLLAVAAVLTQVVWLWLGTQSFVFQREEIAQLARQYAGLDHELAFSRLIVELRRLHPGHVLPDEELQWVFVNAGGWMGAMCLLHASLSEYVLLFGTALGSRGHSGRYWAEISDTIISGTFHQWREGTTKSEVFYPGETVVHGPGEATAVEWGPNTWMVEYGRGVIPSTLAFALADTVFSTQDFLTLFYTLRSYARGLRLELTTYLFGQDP
Chain of CYP2D6 (P10635 whole entry): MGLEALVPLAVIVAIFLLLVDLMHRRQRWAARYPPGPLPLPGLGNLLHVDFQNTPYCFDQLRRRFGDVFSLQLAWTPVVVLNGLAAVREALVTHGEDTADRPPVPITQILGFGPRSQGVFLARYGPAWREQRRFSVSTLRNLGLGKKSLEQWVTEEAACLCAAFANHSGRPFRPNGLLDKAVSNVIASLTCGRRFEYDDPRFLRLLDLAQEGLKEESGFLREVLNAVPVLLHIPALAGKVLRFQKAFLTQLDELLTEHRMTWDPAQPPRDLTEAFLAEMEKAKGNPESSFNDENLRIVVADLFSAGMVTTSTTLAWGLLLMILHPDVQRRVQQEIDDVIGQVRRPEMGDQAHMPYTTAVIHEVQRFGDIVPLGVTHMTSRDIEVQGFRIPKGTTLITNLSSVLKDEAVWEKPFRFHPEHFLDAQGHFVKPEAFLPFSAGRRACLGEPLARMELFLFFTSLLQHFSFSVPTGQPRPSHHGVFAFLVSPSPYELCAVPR
T3 sequence (Q60492 whole entry): as the sequence (Q60492 whole entry) above
Chain of sigma-1 receptors (Q60492 whole entry): as above
Chain of sigma-2 (Q5U3Y7 whole entry): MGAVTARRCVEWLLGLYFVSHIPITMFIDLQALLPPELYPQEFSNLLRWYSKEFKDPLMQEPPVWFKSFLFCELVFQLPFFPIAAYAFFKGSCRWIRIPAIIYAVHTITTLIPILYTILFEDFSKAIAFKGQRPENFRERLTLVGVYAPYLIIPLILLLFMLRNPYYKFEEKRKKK
Chain of CYP2C19 (P33261 whole entry): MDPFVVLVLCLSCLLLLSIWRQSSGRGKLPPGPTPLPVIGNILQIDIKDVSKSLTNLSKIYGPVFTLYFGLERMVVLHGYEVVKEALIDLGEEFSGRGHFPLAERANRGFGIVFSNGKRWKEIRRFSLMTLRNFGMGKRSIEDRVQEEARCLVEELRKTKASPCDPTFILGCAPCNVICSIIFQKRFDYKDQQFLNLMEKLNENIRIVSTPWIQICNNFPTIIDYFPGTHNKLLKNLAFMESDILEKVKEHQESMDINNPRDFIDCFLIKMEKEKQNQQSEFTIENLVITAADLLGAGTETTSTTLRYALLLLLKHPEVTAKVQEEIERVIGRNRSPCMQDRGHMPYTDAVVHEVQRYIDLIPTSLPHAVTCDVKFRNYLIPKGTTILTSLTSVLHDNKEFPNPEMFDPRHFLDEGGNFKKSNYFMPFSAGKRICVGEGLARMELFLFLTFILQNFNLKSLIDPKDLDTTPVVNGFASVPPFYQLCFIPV
Chain of CYP3A4 (P08684 whole entry): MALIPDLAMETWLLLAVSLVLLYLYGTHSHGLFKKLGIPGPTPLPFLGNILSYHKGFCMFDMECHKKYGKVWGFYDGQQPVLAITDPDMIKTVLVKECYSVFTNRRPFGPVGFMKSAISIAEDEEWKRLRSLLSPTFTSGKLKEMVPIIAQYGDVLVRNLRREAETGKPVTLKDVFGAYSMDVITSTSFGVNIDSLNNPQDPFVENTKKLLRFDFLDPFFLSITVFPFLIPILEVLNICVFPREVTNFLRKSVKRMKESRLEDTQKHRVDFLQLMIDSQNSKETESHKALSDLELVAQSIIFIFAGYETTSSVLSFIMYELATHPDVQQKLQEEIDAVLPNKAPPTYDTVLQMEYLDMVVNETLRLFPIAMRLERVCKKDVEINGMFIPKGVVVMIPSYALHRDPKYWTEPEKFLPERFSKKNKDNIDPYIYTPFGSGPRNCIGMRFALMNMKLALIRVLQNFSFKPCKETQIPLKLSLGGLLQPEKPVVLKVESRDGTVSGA

IC50 (sigma-2)	CYP2D6 (CYP2D6)	CYP2C19 (CYP2C19)	IC50 [2]	% Inhibition [2]	fraction unbound (Protein Binding)	IC50 (sigma-1 receptors)	CYP1A2 (CYP1A2)	Papp (Permeability)	Metabolic Stability (% parent remaining) (Metabolic Stability)	solubility (Solubility)	Log D7.5 (Log D7.5)	IC50 (human sigma receptor)	CYP3A4 (CYP3A4)	IC50 [3]	Compound	GSH Level (% Control) (GSH Level)	Caspase-3 Induction % Induction (Caspase-3)	DNA Synthesis (DNA Synthesis)	Cell Viability (Cell Viability)	Protein Synthesis (Protein Synthesis)	further results
< 1000 nM	102 % inhibition	42 % inhibition	< 10 nM	>50%	< 0.01	< 10 nM	20 % inhibition	22.4 ×10⁻⁶ cm/s	1 % parent remaining	83 µM (≈ 28.3 µg/mL)	3.7	< 100 nM	67 % inhibition	< 10 nM	OC1CCC2(CCN(Cc3ccc(F)cc3)CC2)Nc2ccccc21 (racemic) [Compound 32, 1′-(4-fluorobenzyl)-3,4-dihydrospiro[5H-1-benzazepine-2(1H)-4′-piperidin]-5ol]	<10 % Control	<10 % Induction	<10 % inhibition	<10 % inhibition	<10 % inhibition	concentration at 4 h ([1]; 5 mg/kg i.v.): 134 ng/g; clearance ([1]; 5 mg/kg i.v.): 31.7 mL/min; AUC(0-t) ([1]; 5 mg/kg i.v., 10% hydroxypropyl-p-cyclodextrin): 700 ng·h/mL; Vb ([1]; 5 mg/kg i.v.): 42 L; Vc ([1]; 5 mg/kg i.v.): 1.1 L; T1/2α ([1]; 5 mg/kg i.v.): 12.6 min; T1/2β ([1]; 5 mg/kg i.v.): 120 min; CYP2C9 (CYP2C9): 11 % inhibition; Membrane Integrity (Membrane Integrity): <10 % inhibition; RedOx State (RedOx State): 17 % inhibition
< 1000 nM	44 % inhibition	28 % inhibition	< 10 nM	>50%	0.04	< 10 nM	<10 % inhibition	22.9 ×10⁻⁶ cm/s	44 % parent remaining	192 µM (≈ 65 µg/mL)	2.19	< 100 nM	22 % inhibition	< 10 nM	O=C1CCC2(CCN(Cc3ccc(F)cc3)CC2)Nc2ccccc21 [Compound 31, 1′-(4-fluorobenzyl)-3,4-dihydrospiro[5H-1-benzazepine-2(1H)-4′-piperidin]-5-one]	<10 % Control	<10 % Induction	<10 % inhibition	<10 % inhibition	65 % inhibition	concentration at 4 h ([1]; 4 mg/kg i.v.): 70 ng/g; clearance ([1]; 4 mg/kg i.v.): 10.2 mL/min; AUC(0-t) ([1]; 4 mg/kg i.v., Peg400:Dextrose (2:3 v/v)): 1480 ng·h/mL; Vb ([1]; 4 mg/kg i.v.): 0.65 L; Vc ([1]; 4 mg/kg i.v.): 0.23 L; T1/2α ([1]; 4 mg/kg i.v.): 7.2 min; T1/2β ([1]; 4 mg/kg i.v.): 48 min; CYP2C9 (CYP2C9): <10 % inhibition; Membrane Integrity (Membrane Integrity): <10 % inhibition; RedOx State (RedOx State): 28 % inhibition
